Values belong to the molecule of their own block, whether it stands above or below them.
Tested on: 883617-216-R-J1-PDC tumor spheroids, viability
Test: Anticancer human tumor 883617-216-R-J1-PDC patient-derived bladder carcinoma cell line growth inhibition [PI3K]
Settings: spheroids with HUVEC and MSC; for IC50: curve of first compound; for viability, T/C: stronger effect = lower value
In short: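 Tumor cells grown as multi-cell spheroids with HUVEC endothelial cells and MSC fibroblast-like stroma were treated with targeted agents combined with inavolisib, alpelisib, duvelisib or copanlisib. Doses fell in half-log steps from near clinical Cmax, else from 10 microM. Viability was measured.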

[1] = second compound 0.0316 µM, first compound 0.0316 µM
[2] = second compound 0.0316 µM, first compound 0.1 µM
[3] = second compound 0.0316 µM, first compound 0.316 µM
[4] = second compound 0.0316 µM, first compound 1 µM
[5] = second compound 0.0316 µM, first compound 3.16 µM
[6] = second compound 0.0316 µM, first compound 10 µM
[7] = second compound 0.1 µM, first compound 0.0316 µM
[8] = second compound 0.1 µM, first compound 0.1 µM
[9] = second compound 0.1 µM, first compound 0.316 µM
[10] = second compound 0.1 µM, first compound 1 µM
[11] = second compound 0.1 µM, first compound 3.16 µM
[12] = second compound 0.1 µM, first compound 10 µM
[13] = second compound 0.316 µM, first compound 0.0316 µM
[14] = second compound 0.316 µM, first compound 0.1 µM
[15] = second compound 0.316 µM, first compound 0.316 µM
[16] = second compound 0.316 µM, first compound 1 µM
[17] = second compound 0.316 µM, first compound 3.16 µM
[18] = second compound 0.316 µM, first compound 10 µM
[19] = second compound 1 µM, first compound 0.0316 µM
[20] = second compound 1 µM, first compound 0.1 µM
[21] = second compound 1 µM, first compound 0.316 µM
[22] = second compound 1 µM, first compound 1 µM
[23] = second compound 1 µM, first compound 3.16 µM
[24] = second compound 1 µM, first compound 10 µM
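Further: spheroids exposed to agents for 7 days before the viability read.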

IC50 (second compound 0.0316 µM): > 10000 nM
IC50 (second compound 0.1 µM): > 10000 nM
IC50 (second compound 0.316 µM): < 31.6 nM
IC50 (second compound 1 µM): < 31.6 nM
IC50 (second compound 3.16 µM): < 31.6 nM
IC50 (second compound 10 µM): < 31.6 nM
SMILES: CC(Cn1ccc(-c2ccc(C#N)c(Cl)c2)n1)NC(=O)c1cc(C(C)O)[nH]n1 (centres undefined) + Cc1nc(NC(=O)N2CCCC2C(N)=O)sc1-c1ccnc(C(C)(C)C(F)(F)F)c1
viability, T/C [1]: 86.2%
viability, T/C [2]: 77.4%
viability, T/C [3]: 85.3%
viability, T/C [4]: 101%
viability, T/C [5]: 100%
viability, T/C [6]: 93.8%
viability, T/C [7]: 73.8%
viability, T/C [8]: 60.6%
viability, T/C [9]: 67.9%
viability, T/C [10]: 78.9%
viability, T/C [11]: 70%
viability, T/C [12]: 67.4%
viability, T/C [13]: 45.4%
viability, T/C [14]: 40.1%
viability, T/C [15]: 50.6%
viability, T/C [16]: 42.5%
viability, T/C [17]: 55%
viability, T/C [18]: 55.9%
viability, T/C [19]: 30.8%
viability, T/C [20]: 31%
viability, T/C [21]: 28.8%
viability, T/C [22]: 24.7%
viability, T/C [23]: 28.8%
viability, T/C [24]: 28%
viability, T/C (second compound 3.16 µM, first compound 0.0316 µM): 13%
viability, T/C (second compound 3.16 µM, first compound 0.1 µM): 15.4%
viability, T/C (second compound 3.16 µM, first compound 0.316 µM): 15.5%
viability, T/C (second compound 3.16 µM, first compound 1 µM): 15.3%
viability, T/C (second compound 3.16 µM, first compound 3.16 µM): 16.2%
viability, T/C (second compound 3.16 µM, first compound 10 µM): 15.3%
viability, T/C (second compound 10 µM, first compound 0.0316 µM): 6.67%
viability, T/C (second compound 10 µM, first compound 0.1 µM): 7.22%
viability, T/C (second compound 10 µM, first compound 0.316 µM): 6.48%
viability, T/C (second compound 10 µM, first compound 1 µM): 6.6%
viability, T/C (second compound 10 µM, first compound 3.16 µM): 9.29%
viability, T/C (second compound 10 µM, first compound 10 µM): 7.26%

IC50 (second compound 0.00316 µM): 9310 nM
IC50 (second compound 0.01 µM): > 10000 nM
IC50 (second compound 0.0316 µM): 888 nM
IC50 (second compound 0.1 µM): < 31.6 nM
IC50 (second compound 0.316 µM): < 31.6 nM
IC50 (second compound 1 µM): < 31.6 nM
SMILES: Cn1nccc1Nc1nccc(-c2ccn(C(CO)c3ccc(Cl)c(F)c3)c(=O)c2)n1 (centres undefined) + CC(Nc1ccc2c(c1)OCCn1cc(N3C(=O)OCC3C(F)F)nc1-2)C(N)=O
viability, T/C (second compound 0.00316 µM, first compound 0.0316 µM): 83.2%
viability, T/C (second compound 0.00316 µM, first compound 0.1 µM): 67.5%
viability, T/C (second compound 0.00316 µM, first compound 0.316 µM): 80.3%
viability, T/C (second compound 0.00316 µM, first compound 1 µM): 75.6%
viability, T/C (second compound 0.00316 µM, first compound 3.16 µM): 80.1%
viability, T/C (second compound 0.00316 µM, first compound 10 µM): 48.1%
viability, T/C (second compound 0.01 µM, first compound 0.0316 µM): 85.6%
viability, T/C (second compound 0.01 µM, first compound 0.1 µM): 74.7%
viability, T/C (second compound 0.01 µM, first compound 0.316 µM): 77.3%
viability, T/C (second compound 0.01 µM, first compound 1 µM): 64.2%
viability, T/C (second compound 0.01 µM, first compound 3.16 µM): 58.2%
viability, T/C (second compound 0.01 µM, first compound 10 µM): 50.1%
viability, T/C [1]: 66.5%
viability, T/C [2]: 65.9%
viability, T/C [3]: 67.1%
viability, T/C [4]: 48.1%
viability, T/C [5]: 35.9%
viability, T/C [6]: 34.2%
viability, T/C [7]: 44%
viability, T/C [8]: 45.1%
viability, T/C [9]: 38.1%
viability, T/C [10]: 37.1%
viability, T/C [11]: 27.6%
viability, T/C [12]: 22.4%
viability, T/C [13]: 25.1%
viability, T/C [14]: 22.8%
viability, T/C [15]: 17.2%
viability, T/C [16]: 16.2%
viability, T/C [17]: 15.2%
viability, T/C [18]: 9.06%
viability, T/C [19]: 14.9%
viability, T/C [20]: 13.6%
viability, T/C [21]: 12%
viability, T/C [22]: 11%
viability, T/C [23]: 9.01%
viability, T/C [24]: 6.11%

Source: PubChem BioAssay AID1963973 (Molecular Pharmacology Branch, DTP, NCI, 2024)
